Source: patent US5750389A, “Purified saccharose-synthase, process for its production and its use” (Forschungszentrum Julich GmbH, priority 1992, dated 1998)
Each block holds one molecule with its values, some of them ahead of it.

How the values were obtained:
[1] = tested on: purified sucrose-synthase from rice; assay: Substrate spectrum for the synthesis of disaccharides: variation of the acceptor, reacted with UDP-glucose; assay type: biochemical; details: for Relative Activity %: acceptor substrates reacted with UDP-glucose, D-fructose = 100
Experimental: 12. Substrate Spectrum of the Saccharose-synthase from rice for the synthesis of Disaccharides.
B: Variation of the Acceptor.
For the synthesis reaction, the acceptor was varied. Apart from the natural acceptor, other diastereomers of D-fructose, like D-psicose, D-tagatose, D-sorbose were introduced. Further, several keytoses were systematically tested. Apart from Aldoses, nonsugar acceptors were also tested.

[2] = tested on: purified sucrose-synthase from rice; assay: Substrate spectrum of the sucrose-synthase for the splitting reaction (saccharide + UDP); assay type: biochemical; details: for replacement of saccharose in the splitting reaction (in words): Table 3; for Relative Activity %: substrate splitting with UDP, 2 mM UDP, saccharide 75 to 500 mM, 3 h at 30° C., pH 7.2, Saccharose = 100
Experimental: 11. Substrate Spectrum of the Sucrose-Synthase for the splitting reaction (I)
For the splitting reaction of the sucrose-synthase, sucrose was replaced by other disaccharide or trisaccharide:
α-Glc 1-2 β-Fruc+UDP (TDP) UDP-Glc (TDP-Glc)
The concentration of the saccharide amounted to 75 to 500 mM in the reaction composition. 2 mM UDP or TDP and as a rule 10 to 80 mU enzyme were introduced. After 3 h at 30° C. and pH 7.2 (200 mM Hepes-NaOH), the reaction was stopped at 95° C. 5 min. The formation of nucleotide sugars was followed with HPLC and compared with a control (without enzyme).

[3] = tested on: rice enzyme (sucrose-synthase); assay: Kinetics (Vmax, Km) of the splitting reaction; assay type: biochemical; details: sucrose 500 mM; for Km: UDP or TDP varied 0 to 10 mM, 1 h at 30° C., pH 6.5
Experimental: […] All reaction mixtures were incubated for 1 h at 30° C. and pH 6.5 (Hepes-NaOH 200 mM). The samples were treated as described above and analyzed with HPLC. […] The substrate excess inhibition can be countered by higher enzyme quantities.

[4] = tested on: purified Sucrose-synthase; assay: Substrate spectrum of the nucleosidediphosphate; assay type: biochemical, rice; details: pH 7.2, 30° C., FIG. 2
Experimental: 1. Substrate spectrum of the nucleosidediphosphate.
UDP, TDP, CDP, ADP and GDP were investigated. The reaction compositions contained:
100 μl Nucleosidediphosphate (15-90 mM)
100 μl purified Sucrose-synthase (21.1 mU/ml)
The reaction composition was incubated at 30° C. and stopped at different times (5 min. at 95° C.). After filtration of the sample through a 0.22 μm filter, the resulting nucleotide sugar was analyzed by means of ionpair HPLC.

saccharose synthase = assay: Dependence on divalent metal ions; assay type: biochemical, rice; details: 1 mM of metal ions
From the text: 9. Dependence on Divalent Metal Ions

[5] = tested on: purified saccharose synthase from rice; assay: Substrate spectrum for the synthesis of disaccharides: variation of the nucleotide sugar, fructose as acceptor; assay type: biochemical; details: for reaction of UDP-sugar with the rice enzyme (in words): Table 4; for Relative Activity %: UDP-sugars with fructose as acceptor, 2 hours at 30° C., pH 7.5, UDP-glucose = 100
Experimental: A: Variation of the Nucleotide Sugar.
For the synthesis reaction the nucleotide sugars were varied:
The composition contained:
The composition was incubated for 2 hours at 30° C. and stopped for 5 minutes at 95° C. With HPLC, with comparison with a control (without enzyme) the development of UDP was followed.

Compound: O[C@@H]1[C@@H](O)[C@@H]2OC[C@@H](O2)[C@H]1O [1,6-Anhydroglucose]
acceptor of sucrose-synthase (in words) [1]: acceptors | Relative Activity % [1]: 9.1%

Compound: OCC(O)CN1CCCC1 (centres unmarked) [3-pyrrolidino-1,2-propandiol]
Relative Activity % [1]: 9.6%

Compound: CN1CCC(O)C1 (centres unmarked) [3-hydroxy-N-methyl-pyrrolidine]
Relative Activity % [1]: 1.9%

Compound: OC[C@H]1O[C@H](OC[C@H]2O[C@H](O[C@]3(CO)O[C@H](CO)[C@@H](O)[C@@H]3O)[C@H](O)[C@@H](O)[C@@H]2O)[C@H](O)[C@@H](O)[C@H]1O [Raffinose]
replacement of saccharose in the splitting reaction (in words) [2]: can replace the saccharose | Relative Activity % [2]: 3.8% | acceptor of sucrose-synthase (in words) [1]: can also serve as acceptors | Relative Activity % [1]: 8.4%

Compound: OC[C@@]12OC[C@@H](O1)[C@@H](O)[C@@H](O)[C@@H]2O [Sedoheptulose Anhydride]
Relative Activity % [1]: 1.1%

Km [3]: 650 µM
Compound: Cc1cn([C@H]2C[C@H](O)[C@@H](COP(=O)(O)OP(=O)(O)O)O2)c(=O)[nH]c1=O [TDP]
acceptance of the nucleosidediphosphate (rate of NDP-glucose formation) [4]: accepted in the sequence UDP, TDP, ADP, CDP and GDP

Compound: Nc1nc2c(ncn2[C@@H]2O[C@H](COP(=O)(O)OP(=O)(O)O)[C@@H](O)[C@H]2O)c(=O)[nH]1 [GDP]
acceptance of the nucleosidediphosphate (rate of NDP-glucose formation) [4]: accepted in the sequence UDP, TDP, ADP, CDP and GDP

Compound: CC(=O)[C@@H](O)[C@H](O)C(=O)CO [5-keto-6-deoxy-D-fructose]
Relative Activity % [1]: 25.1%

Compound: OC[C@H]1O[C@@](CO)(O[C@@H]2C[C@@H](O)[C@H](O)[C@@H](CO)O2)[C@@H](O)[C@@H]1O [2-deoxy-saccharose]
Relative Activity % [2]: 55%

Compound: CCN1CCC(O)C1 (centres unmarked) [1-ethyl-3-hydroxy-pyrrolidine]
Relative Activity % [1]: 10.4%

Compound: OCCN1CCCCC1
Relative Activity % [1]: 9.4%

Compound: Nc1ccn([C@@H]2O[C@H](COP(=O)(O)OP(=O)(O)O)[C@@H](O)[C@H]2O)c(=O)n1 [CDP]
acceptance of the nucleosidediphosphate (rate of NDP-glucose formation) [4]: accepted in the sequence UDP, TDP, ADP, CDP and GDP

Compound: O=C[C@@H](O)[C@@H](O)[C@H](O)[C@H](O)CO [D-mannose]
acceptor of sucrose-synthase (in words) [1]: acceptors | Relative Activity % [1]: 3.9%

Compound: O=C[C@H](O)[C@@H](O)[C@@H](O)CO [L-arabinose]
acceptor of sucrose-synthase (in words) [1]: acceptors | Relative Activity % [1]: 3.2%

influence of metal ions on the enzyme activity (saccharose synthase): influenced only slightly | influence of metal ions on the enzyme activity, TDP as the substrate (saccharose synthase): stimulation of the enzyme activity
Compound: [Mn+2] [Mn^2+]

influence of metal ions on the enzyme activity (saccharose synthase): completely inactivated
Compound: [Cu+2] [Cu^2+]

Compound: O=C(CO)[C@@H](O)[C@H](O)[C@H](O)CO [D-fructose]
Relative Activity % [1]: 100%

Compound: O=C(CO)[C@@H](O)[C@@H](O)[C@H](O)CO [D-tagatose]
Relative Activity % [1]: 28.3%

reaction of UDP-sugar with the rice enzyme (in words) [5]: can be reacted with the rice enzyme
Compound: CC(=O)N[C@H]1[C@@H](OP(=O)(O)OP(=O)(O)OC[C@H]2O[C@@H](n3ccc(=O)[nH]c3=O)[C@H](O)[C@@H]2O)O[C@H](CO)[C@@H](O)[C@@H]1O [UDP-N-acetylglucosamine]
Relative Activity % [5]: 1.8%

influence of metal ions on the enzyme activity, TDP as the substrate (saccharose synthase): stimulation of the enzyme activity
Compound: [Ca+2] [Ca^2+]

Compound: CC(C)[C@@H](O)[C@H](O)C(=O)CO [5,6-dideoxy-5-methyl-D-fructose]
Relative Activity % [1]: 19.0%

Compound: C[C@H](O)[C@@H](O)[C@H](O)C(=O)CO [6-desoxy-L-sorbase]
Relative Activity % [1]: 8.8%

reaction of UDP-sugar with the rice enzyme (in words) [5]: can be reacted with the rice enzyme
Compound: O=c1ccn([C@@H]2O[C@H](COP(=O)(O)OP(=O)(O)O[C@H]3OC[C@@H](O)[C@H](O)[C@H]3O)[C@@H](O)[C@H]2O)c(=O)[nH]1 [UDP-xylose]
Relative Activity % [5]: 1.7%

influence of metal ions on the enzyme activity (saccharose synthase): influenced only slightly
Compound: [Mg+2] [Mg^2+]

Compound: CC[C@@H](O)[C@H](O)C(=O)CO [5,6-dideoxy-D-fructose]
Relative Activity % [1]: 7.6%

Compound: O=C(CO)[C@H](O)[C@H](O)[C@H](O)CO [D-psicose]
Relative Activity % [1]: 14.1%

Compound: OC[C@H]1O[C@@](CO)(O[C@H]2O[C@H](CO)[C@@H](O)[C@H](O)[C@H]2O)[C@@H](O)[C@@H]1O [Saccharose]
Relative Activity % [2]: 100%

Compound: CCCCCCCCO[C@@H]1O[C@H](CO)[C@@H](O)[C@H](O)[C@H]1O [Octyl-β-D-glucopyranoside]
acceptor of sucrose-synthase (in words) [1]: acceptors | Relative Activity % [1]: 0.5%

Compound: OC[C@H]1O[C@H](OC[C@H]2OC(O)(CO)[C@@H](O)[C@@H]2O)[C@H](O)[C@@H](O)[C@@H]1O (some centres unmarked) [Isomaltulose]
replacement of saccharose in the splitting reaction (in words) [2]: can replace the saccharose | Relative Activity % [2]: 1.0% | Relative Activity % [1]: 3.1%

Compound: O=C(CO)[C@@H](O[C@H]1O[C@H](CO)[C@@H](O)[C@H](O)[C@H]1O)[C@H](O)[C@H](O)CO [Turanose]
Relative Activity % [1]: 0.5%

Compound: O=C[C@@H](O)[C@@H](O)[C@H](O)CO [D-lyxose]
acceptor of sucrose-synthase (in words) [1]: acceptors | Relative Activity % [1]: 14.7%

Compound: O=C(CO)[C@@H](O)[C@H](O)CO [D-xylulose]
acceptor of sucrose-synthase (in words) [1]: acceptors | Relative Activity % [1]: 40.7%

Compound: OC1CCNC1 (centres unmarked) [3-hydroxypyrrolidine]
Relative Activity % [1]: 6.3%

Km [3]: 400 µM | Ki ([3]; with 0.9 mU enzyme, pH 6.5, 30° C., read-out: substrate excess inhibition Ki(S)): 16 mM
Compound: O=c1ccn([C@@H]2O[C@H](COP(=O)(O)OP(=O)(O)O)[C@@H](O)[C@H]2O)c(=O)[nH]1 [UDP]
acceptance of the nucleosidediphosphate (rate of NDP-glucose formation) [4]: accepted in the sequence UDP, TDP, ADP, CDP and GDP

Compound: OC[C@H]1O[C@@H](O[C@@H]2[C@@H](CO)OC(O)(CO)[C@H]2O)[C@H](O)[C@@H](O)[C@H]1O (mixture of isomers) [Lactulose]
acceptor of sucrose-synthase (in words) [1]: can also serve as acceptors | Relative Activity % [1]: 12.3%

Compound: CN1[C@@H]2CC[C@H]1C[C@@H](O)C2 [Tropin]
Relative Activity % [1]: 10.3%

Compound: OC[C@H]1O[C@@](CO)(O[C@H]2O[C@H](CO)[C@@H](O)[C@H](O)[C@H]2O)[C@@H](O[C@H]2O[C@H](CO)[C@@H](O)[C@H](O)[C@H]2O)[C@@H]1O [Melizitose]
replacement of saccharose in the splitting reaction (in words) [2]: can replace the saccharose | Relative Activity % [2]: 0.4% | Relative Activity % [1]: 0.6%

Compound: O=C(CO)[C@@H](O)[C@H](O)[C@@H](O)CO [L-sorbose]
acceptor of sucrose-synthase (in words) [1]: acceptors | Relative Activity % [1]: 6.0%

influence of metal ions on the enzyme activity (saccharose synthase): completely inactivated
Compound: [Fe+2] [Fe^2+]

Compound: Nc1ncnc2c1ncn2[C@@H]1O[C@H](COP(=O)(O)OP(=O)(O)O)[C@@H](O)[C@H]1O [ADP]
acceptance of the nucleosidediphosphate (rate of NDP-glucose formation) [4]: accepted in the sequence UDP, TDP, ADP, CDP and GDP

Compound: CC1(C)S[C@@H]2[C@H](NC(=O)[C@H](N)c3ccccc3)C(=O)N2[C@H]1C(=O)O [Ampicillin, reference compound]
Relative Activity % [2]: 2.4%
